Laboratory results taken from the supplement of paper PMC9244889.
Where a name gives a salt, the structure may show the parent alone.

How the values were obtained:
Vero E6 [1] = assay: inhibition of SARS-CoV-2-induced cytopathic effect relative to cell and virus controls; higher = more antiviral protection; details: 72 h, virus: SARS-CoV-2 propagated original strain, 100 TCID50, assay detail: infected
Protocol: (§1)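 Vero E6 C1008 cells (2e4 cells/well) were treated with a 3-fold dilution series of each drug (monotherapy), with or without live SARS-CoV-2 (propagated original strain, 100 TCID50). After 72 h at 37 °C, viability was read with Viral ToxGlo (ATP luminescence). %Inhibition of virus-induced CPE and %Cytotoxicity (uninfected) were normalised to cell and virus controls. Triplicates. The paper excluded %Inhibition points with >25% cytotoxicity from its curve fits.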

Vero E6 [2] = assay: cytotoxicity relative to untreated cell control; higher = more toxic; details: 72 h, assay detail: uninfected
Protocol: as §1

Cc1ccc(NC(=O)c2ccc(CN3CCN(C)CC3)cc2)cc1Nc1nc(-c2cccnc2)cs1 [masitinib]
Details	cytotoxicity, Vero E6 [2] [%]	inhibition of SARS-CoV-2-induced cytopathic effect, Vero E6 [1] [%]
0.000564503 µM	-15.3	0.87
0.00169351 µM	-17.5	1.03
0.00508053 µM	-21.6	2.14
0.0152416 µM	-16.3	1.2
0.0457247 µM	-19.4	0.66
0.137174 µM	-17.8	0.458
0.411523 µM	-19.8	3.69
1.23457 µM	-15.2	8.75
3.7037 µM	4.4	42.8
11.1111 µM	83.4	18.1
33.3333 µM	99.617	-7.42
100 µM	99.831	-17.86

N=C(N)Nc1ccc(C(=O)Oc2ccc3cc(C(=N)N)ccc3c2)cc1 [nafamostat mesylate]
Details	cytotoxicity, Vero E6 [2] [%]	inhibition of SARS-CoV-2-induced cytopathic effect, Vero E6 [1] [%]
56.45 pM	-10.2	1.36
0.000169351 µM	-7.59	0.555
0.000508053 µM	-1.77	1.31
0.00152416 µM	-4.85	0.363
0.00457247 µM	-6	0.453
0.0137174 µM	-9.55	0.391
0.0411523 µM	-7.66	-0.525
0.123457 µM	-5.32	-0.383
0.37037 µM	1.08	0.358
1.11111 µM	-2.6	0.841
3.33333 µM	1.59	0.526
10 µM	-0.485	-0.288

CCC(CC)COC(=O)[C@H](C)N[P@](=O)(OC[C@H]1O[C@@](C#N)(c2ccc3c(N)ncnn23)[C@H](O)[C@@H]1O)Oc1ccccc1 [remdesivir]
Details	cytotoxicity, Vero E6 [2] [%]	inhibition of SARS-CoV-2-induced cytopathic effect, Vero E6 [1] [%]
0.000564503 µM	-22.9	1.31
0.00169351 µM	-17.3	1.17
0.00508053 µM	-11.8	-0.59
0.0152416 µM	-6.94	-0.693
0.0457247 µM	-6.5	-0.335
0.137174 µM	-4.51	1.45
0.411523 µM	-1.99	6.62
1.23457 µM	-7.93	42.2
3.7037 µM	-2.61	111
11.1111 µM	2.25	108
33.3333 µM	9.25	96.6
100 µM	59.6	44.1

CC(C)c1nc(CN(C)C(=O)N[C@H](C(=O)N[C@@H](Cc2ccccc2)C[C@H](O)[C@H](Cc2ccccc2)NC(=O)OCc2cncs2)C(C)C)cs1 [ritonavir]
Details	cytotoxicity, Vero E6 [2] [%]	inhibition of SARS-CoV-2-induced cytopathic effect, Vero E6 [1] [%]
0.00112901 µM	-15.2	2.5
0.00338702 µM	-13.3	3.51
0.0101611 µM	-27.3	1.73
0.0304832 µM	-22.5	0.79
0.0914495 µM	-33.3	2.39
0.274348 µM	-28.6	0.802
0.823045 µM	-22	1.81
2.46914 µM	-21.4	1.96
7.40741 µM	-27.3	2.22
22.2222 µM	-38.7	7.59
66.6667 µM	8.14	2.75
200 µM	69.7	-2.18

O=C(/C=C\n1cnc(-c2cc(C(F)(F)F)cc(C(F)(F)F)c2)n1)NNc1cnccn1 [selinexor]
Details	cytotoxicity, Vero E6 [2] [%]	inhibition of SARS-CoV-2-induced cytopathic effect, Vero E6 [1] [%]
0.000564503 µM	14.6	1.79
0.00169351 µM	14.9	0.365
0.00508053 µM	7.61	-1.85
0.0152416 µM	7.88	-2.96
0.0457247 µM	29.1	-4.3
0.137174 µM	23.4	-3.81
0.411523 µM	35.6	-3.25
1.23457 µM	47.2	-2.87
3.7037 µM	48.93	-1.23
11.1111 µM	44.1	8.51
33.3333 µM	89.1	-1.32
100 µM	99.74	-15.08

CCC[C@H](NC(=O)[C@@H]1[C@H]2CCC[C@H]2CN1C(=O)[C@@H](NC(=O)[C@@H](NC(=O)c1cnccn1)C1CCCCC1)C(C)(C)C)C(=O)C(=O)NC1CC1 [telaprevir]
Details	cytotoxicity, Vero E6 [2] [%]	inhibition of SARS-CoV-2-induced cytopathic effect, Vero E6 [1] [%]
0.000564503 µM	0.259	0.117
0.00169351 µM	-0.00145	1.28
0.00508053 µM	-4.54	-0.629
0.0152416 µM	-3.42	-0.222
0.0457247 µM	-3.36	0.129
0.137174 µM	-8.35	-0.93
0.411523 µM	-3.53	-0.643
1.23457 µM	-4.1	1.01
3.7037 µM	-6.16	0.773
11.1111 µM	-1.51	0.394
33.3333 µM	17.2	-2.07
100 µM	80.5	17.4
